These results are taken from patent US10093630B2, “Pyrazole compounds and methods of making and using same” (ABIDE THERAPEUTICS, INC., priority 2014, dated 2018).

The structures appear in SMILES notation. Like-named read-outs stand apart in the source and are kept apart here. Bounds are passed on as bounds.

What all share (experiment): In vitro competitive activity-based protein profiling (gel-based, FP-Rh or HT-01 probe)
What all share (assay type): biochemical

The target of one assay is T1, MAGL (Mus musculus, UniProt O35678).
T1 construct: Proteomes (mouse brain membrane fraction or cell lysates); from tissue; host or cells: mouse brain membrane fraction (or cell lysates, not specified)
T1 sequence (O35678 1-303): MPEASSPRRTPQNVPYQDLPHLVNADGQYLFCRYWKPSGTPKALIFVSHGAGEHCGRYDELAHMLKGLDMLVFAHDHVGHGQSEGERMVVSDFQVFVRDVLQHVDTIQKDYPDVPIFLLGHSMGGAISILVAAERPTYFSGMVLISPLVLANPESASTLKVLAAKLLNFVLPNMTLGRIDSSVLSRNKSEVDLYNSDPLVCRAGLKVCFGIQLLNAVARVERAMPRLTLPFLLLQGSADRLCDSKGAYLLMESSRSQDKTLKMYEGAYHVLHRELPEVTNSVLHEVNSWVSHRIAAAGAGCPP
The conditions noted are these: for inhibition at 1 µM: 1 μM inhibitor; for inhibition at 10 µM: 10 μM inhibitor; for IC50: mouse brain membrane fraction or cell lysates, 30 min preincubation at 37° C., read-out: Mouse (IC50 value, nM) MAGL. A digest of the protocol:
(§1)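 Gel-based read-out: fluorescent band intensity after SDS-PAGE reflected remaining hydrolase activity. Inhibitors were preincubated 30 min at 37° C with 1.0 mg/mL mouse brain membrane or lysate proteome before a further 30 min at 37° C with FP-Rh or HT-01 probe.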

For a further assay, the target named is T2, FAAH (Mus musculus, UniProt O08914).
T2 construct: Proteomes (mouse brain membrane fraction or cell lysates); from tissue; host or cells: mouse brain membrane fraction (or cell lysates, not specified)
T2 sequence (O08914 1-579): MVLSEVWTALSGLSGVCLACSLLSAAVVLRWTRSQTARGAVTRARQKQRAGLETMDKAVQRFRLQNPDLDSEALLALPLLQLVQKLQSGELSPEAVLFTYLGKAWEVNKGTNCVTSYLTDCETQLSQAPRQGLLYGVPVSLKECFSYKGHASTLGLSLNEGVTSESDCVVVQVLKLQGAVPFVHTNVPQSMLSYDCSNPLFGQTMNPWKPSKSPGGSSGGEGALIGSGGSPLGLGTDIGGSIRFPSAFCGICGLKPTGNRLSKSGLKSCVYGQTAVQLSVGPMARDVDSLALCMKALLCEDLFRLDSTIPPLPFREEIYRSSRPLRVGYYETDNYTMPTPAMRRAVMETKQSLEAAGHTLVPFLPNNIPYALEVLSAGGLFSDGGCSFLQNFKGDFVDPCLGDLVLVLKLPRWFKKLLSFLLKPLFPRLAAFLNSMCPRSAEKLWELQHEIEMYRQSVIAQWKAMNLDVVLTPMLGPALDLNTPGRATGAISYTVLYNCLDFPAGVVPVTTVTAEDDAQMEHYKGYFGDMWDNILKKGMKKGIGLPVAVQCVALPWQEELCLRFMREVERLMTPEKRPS
The conditions noted are these: for inhibition at 1 µM: 1 μM inhibitor, read-out: % Inhibition at 1 μM, B = FAAH; for inhibition at 10 µM: 10 μM inhibitor, read-out: % Inhibition at 10 μM, B = FAAH; for IC50: mouse brain membrane fraction or cell lysates, 30 min preincubation at 37° C., read-out: Mouse (IC50 value, nM) FAAH. In outline:
as §1

The target in a further assay is T3, ABHD6 (Mus musculus, UniProt Q8R2Y0).
T3 construct: Proteomes (mouse brain membrane fraction or cell lysates); from tissue; host or cells: mouse brain membrane fraction (or cell lysates, not specified)
T3 sequence (Q8R2Y0 1-336): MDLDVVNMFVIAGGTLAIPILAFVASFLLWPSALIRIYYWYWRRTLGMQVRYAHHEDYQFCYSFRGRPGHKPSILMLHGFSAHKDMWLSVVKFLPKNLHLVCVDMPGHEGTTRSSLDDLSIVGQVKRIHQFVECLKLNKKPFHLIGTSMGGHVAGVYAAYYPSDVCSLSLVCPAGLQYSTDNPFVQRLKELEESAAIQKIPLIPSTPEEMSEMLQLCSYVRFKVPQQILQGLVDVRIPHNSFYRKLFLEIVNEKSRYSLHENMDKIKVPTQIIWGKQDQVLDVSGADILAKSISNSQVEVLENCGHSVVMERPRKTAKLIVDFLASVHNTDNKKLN
To be noted: for inhibition at 1 µM: 1 μM inhibitor, read-out: % Inhibition at 1 μM, C = ABHD6; for inhibition at 10 µM: 10 μM inhibitor, read-out: % Inhibition at 10 μM, C = ABHD6; for IC50: mouse brain membrane fraction or cell lysates, 30 min preincubation at 37° C., read-out: Mouse (IC50 value, nM) ABHD6. A digest of the protocol: as §1

The target of another assay is T4, PLA2G7 (Mus musculus, UniProt Q60963).
T4 construct: Proteomes (mouse brain membrane fraction or cell lysates); from tissue; host or cells: mouse brain membrane fraction (or cell lysates, not specified)
T4 sequence (Q60963 22-440): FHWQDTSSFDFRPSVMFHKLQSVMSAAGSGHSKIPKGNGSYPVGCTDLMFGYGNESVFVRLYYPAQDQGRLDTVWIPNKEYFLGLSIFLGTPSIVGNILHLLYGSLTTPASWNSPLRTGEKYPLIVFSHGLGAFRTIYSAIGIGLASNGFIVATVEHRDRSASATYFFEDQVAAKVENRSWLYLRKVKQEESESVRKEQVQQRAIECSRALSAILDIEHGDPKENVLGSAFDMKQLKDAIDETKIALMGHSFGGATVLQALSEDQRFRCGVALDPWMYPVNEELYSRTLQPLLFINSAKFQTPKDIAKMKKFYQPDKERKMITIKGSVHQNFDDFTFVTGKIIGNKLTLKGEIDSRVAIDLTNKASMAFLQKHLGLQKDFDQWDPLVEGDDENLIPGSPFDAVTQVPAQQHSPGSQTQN
To be noted: for inhibition at 1 µM: 1 μM inhibitor, read-out: % Inhibition at 1 μM, D = PLA2G7; for inhibition at 10 µM: 10 μM inhibitor, read-out: % Inhibition at 10 μM, D = PLA2G7; for IC50: mouse brain membrane fraction or cell lysates, 30 min preincubation at 37° C. In outline: as §1

Take `O=C(c1cnn(C(=O)N2CCN(Cc3cccnc3)CC2)c1)N1CCCCC1` [Example 71, Piperidin-1-yl(1-(4-(pyridin-3-ylmethyl)piperazine-1-carbonyl)-1H-pyrazol-4-yl)methanone]: the inhibition (usually the drop in the measured response relative to a control, in per cent) at 1 µM was below 25% at MAGL, below 25% on FAAH, 25 to 75% at ABHD6 and above 75% at PLA2G7. The inhibition at 10 µM on MAGL was below 25%; at FAAH, 25 to 75%; on ABHD6 it was above 75%; on PLA2G7 it was above 75%.

As to `N#Cc1cnn(C(=O)N2CCCCC2)c1` [Example 3, 1-(Piperidine-1-carbonyl)-1H-pyrazole-4-carbonitrile], the inhibition at 1 µM on MAGL, on FAAH, at ABHD6 and on PLA2G7 was above 75% throughout. Moreover, the inhibition at 10 µM at MAGL, on FAAH, on ABHD6 and on PLA2G7 was above 75% each time.

Regarding `O=C(N1CCCN(Cc2ccccc2)CC1)n1cc(Cl)cn1` [Example 191, (4-Benzyl-1,4-diazepan-1-yl)(4-chloro-1H-pyrazol-1-yl)methanone], the inhibition at 1 µM is below 25% at MAGL, above 75% at FAAH, 25 to 75% at ABHD6 and below 25% on PLA2G7. The inhibition at 10 µM on MAGL was above 75%; at FAAH, above 75%; on ABHD6 it was above 75%; at PLA2G7 it was below 25%.

For `NC(=O)c1cnn(C(=O)N2CCN(Cc3ccc(Cl)cc3)CC2)c1` [Example 204, 1-(4-(4-chlorobenzyl)piperazine-1-carbonyl)-1H-pyrazole-4-carboxamide], the inhibition at 1 µM was above 75% on MAGL, above 75% at FAAH, above 75% on ABHD6 and below 25% on PLA2G7. The IC50 (in general, the midpoint of a concentration-inhibition curve) is below 100 nM on MAGL, 100 to 1000 nM on FAAH, below 100 nM on ABHD6 and above 1000 nM at PLA2G7.

As for `COc1ccccc1N1CCN(C(=O)n2cc(C(F)(F)F)cn2)CC1` [Example 233, (4-(2-Methoxyphenyl)piperazin-1-yl)(4-(trifluoromethyl)-1H-pyrazol-1-yl)methanone], the inhibition at 1 µM at MAGL, on FAAH, at ABHD6 and on PLA2G7 was above 75% in each case. The inhibition at 10 µM on MAGL, at FAAH, on ABHD6 and at PLA2G7 was above 75% each time. Moreover, the IC50 at MAGL, on FAAH, at ABHD6 and on PLA2G7 was below 100 nM in each case.

Consider `O=C(c1ccccc1)N1CCN(C(=O)n2cc(C(F)(F)F)cn2)CC1` [Example 153, (4-Benzoylpiperazin-1-yl)(4-(trifluoromethyl)-1H-pyrazol-1-yl)methanone], for which the inhibition at 1 µM was above 75% at MAGL, below 25% at FAAH, below 25% on ABHD6 and above 75% on PLA2G7. In addition, the inhibition at 10 µM was above 75% at MAGL, 25 to 75% on FAAH, above 75% at ABHD6 and above 75% at PLA2G7.

For the molecule `O=C(N1CCN(Cc2ccccc2N2CCCC2)CC1)n1cc(C(F)(F)F)cn1` [Example 280, (4-(2-(Pyrrolidin-1-yl)benzyl)piperazin-1-yl)(4-(trifluoromethyl)-1H-pyrazol-1-yl)methanone], the inhibition at 1 µM at MAGL (gel-based competitive ABPP), on FAAH (gel-based competitive ABPP), at ABHD6 (gel-based competitive ABPP) and at PLA2G7 (gel-based competitive ABPP) was above 75% each time. For the same molecule, the IC50 at MAGL was below 100 nM; at FAAH, 100 to 1000 nM; on ABHD6, 100 to 1000 nM; at PLA2G7, below 100 nM.

`N#Cc1cnn(C(=O)N2CCN(Cc3ccc(-c4ccccc4)cc3Cl)CC2)c1` [Example 140, 1-(4-((3-chlorobiphenyl-4-yl)methyl)piperazine-1-carbonyl)-1H-pyrazole-4-carbonitrile]: the inhibition at 1 µM at MAGL, on FAAH, at ABHD6 and at PLA2G7 was above 75% each time. In addition, the inhibition at 10 µM at MAGL, on FAAH, on ABHD6 and on PLA2G7 was above 75% throughout.

Consider `O=C(c1cnn(C(=O)N2CCN(Cc3cccnc3)CC2)c1)N1CCOCC1` [Example 53, (4-(Morpholine-4-carbonyl)-1H-pyrazol-1-yl)(4-(pyridin-3-ylmethyl)piperazin-1-yl)methanone], for which the inhibition at 10 µM on MAGL is 25 to 75%; at FAAH, below 25%; at ABHD6, above 75%; on PLA2G7 it was above 75%. The inhibition at 1 µM on ABHD6 and on PLA2G7 was below 25% each time.

Consider `Cc1cc(N2CCN(C(=O)n3cc(Cl)cn3)CC2)c2ccccc2n1` [Example 208, (4-Chloro-1H-pyrazol-1-yl)(4-(2-methylquinolin-4-yl)piperazin-1-yl)methanone], for which the inhibition at 1 µM on MAGL, at FAAH, on ABHD6 and on PLA2G7 was above 75% in each case. Moreover, the inhibition at 10 µM on MAGL, on FAAH, on ABHD6 and at PLA2G7 was above 75% in each case.

On to `CN(Cc1cccc(-c2ccncc2)c1)C(=O)n1cc(C(F)(F)F)cn1` [Example 222, N-methyl-N-(3-(pyridin-4-yl)benzyl)-4-(trifluoromethyl)-1H-pyrazole-1-carboxamide], for which the inhibition at 1 µM at MAGL was above 75%; on FAAH, above 75%; on ABHD6, above 75%; on PLA2G7, 25 to 75%. In addition, the inhibition at 10 µM at MAGL is above 75%; on FAAH it was above 75%; on ABHD6, above 75%; at PLA2G7 it was below 25%.
